Blank lines part the entries; values can stand above or below the compound they belong to.
What was measured:
BRD4(1) [1] = biological target: T1, BRD4(1) (Homo sapiens, UniProt O60885); experiment: BRD4; type: binding; conditions: BRD4(1) AlphaScreen, compared to JQ1
[2] = Plasma pharmacokinetic analyses in CD1 mice; conditions: 50 mg/kg intraperitoneally
HEXIM1 = experiment: Immunoblot for HEXIM1 in MV4; type: cell-based, human; conditions: MV4;11 cells, 10 nM, later time points (4–24 hours)
MYC = experiment: Immunoblot for MYC in MV4; type: cell-based, human; conditions: MV4;11 cells
BRD4 = BRD4 (Homo sapiens, UniProt O60885); experiment: Immunoblot for BRD4 protein level in MV4; type: cell-based; conditions: MV4;11 cells
[3] = biological target: BRD4 (full-length, short-iso.) (Homo sapiens, UniProt O60885); experiment: BROMOscan
BRD4(1) [4] = biological target: T1, BRD4(1); experiment: BROMOscan
BRD4(1,2) = BRD4(1,2) (Homo sapiens, UniProt O60885); experiment: BROMOscan
BRD4(2) = BRD4(2) (Homo sapiens, UniProt O60885); experiment: BROMOscan

increase in biochemical potency (BRD4(1) [1]): 20 fold
Compound: COC(=O)C[C@@H]1N=C(c2ccc(Cl)cc2)c2c(sc(C(=O)NCCOCCNC(=O)c3sc4c(c3C)C(c3ccc(Cl)cc3)=N[C@@H](CC(=O)OC)c3nnc(C)n3-4)c2C)-n2c(C)nnc21 [(2S+2S)-PEG1, Dimethyl 2,2'-((6S,6'S)-(((oxybis(ethane-2,1-diyl))bis(azanediyl))bis(carbonyl))bis(4-(4-chlorophenyl)-3,9-dimethyl-6H-thieno[3,2-f][1,2,4]triazolo[4,3-a][1,4]diazepine-2,6-diyl))diacetate]

PK properties [2]: comparable PK properties to MT1
Compound: COC(=O)C[C@@H]1N=C(c2ccc(Cl)cc2)c2c(sc(C(=O)NCCNC(=O)C[C@@H]3N=C(c4ccc(Cl)cc4)c4c(sc(C)c4C)-n4c(C)nnc43)c2C)-n2c(C)nnc21 [(6S+2S)-PEG0, Methyl 2-((S)-4-(4-chlorophenyl)-2-((2-(2-((S)-4-(4-chlorophenyl)-2,3,9-trimethyl-6H-thieno[3,2-f][1,2,4]triazolo[4,3-a][1,4]diazepin-6-yl)acetamido)ethyl)carbamoyl)-3,9-dimethyl-6H-thieno[3,2-f][1,2,4]triazolo[4,3-a][1,4]diazepin-6-yl)acetate]

effect on BRD4 protein stability (degradation) (BRD4): No effect on protein stability
displacement of phage expressing full length protein BRD4(full) [3]: picomolar
displacement of phage expressing BRD4(1) (BRD4(1) [4]): picomolar
displacement of phage expressing tandem bromodomain construct BRD4(1,2) (BRD4(1,2)): picomolar
displacement of phage expressing BRD4(2) (BRD4(2)): picomolar
Compound: COC(=O)C[C@@H]1N=C(c2ccc(Cl)cc2)c2c(sc(C(=O)NCCOCCNC(=O)C[C@@H]3N=C(c4ccc(Cl)cc4)c4c(sc(C)c4C)-n4c(C)nnc43)c2C)-n2c(C)nnc21 [(6S+2S)-PEG1, Methyl 2-((S)-4-(4-chlorophenyl)-2-((2-(2-(2-((S)-4-(4-chlorophenyl)-2,3,9-trimethyl-6H-thieno[3,2-f][1,2,4]triazolo[4,3-a][1,4]diazepin-6-yl)acetamido)ethoxy)ethyl)carbamoyl)-3,9-dimethyl-6H-thieno[3,2-f][1,2,4]triazolo[4,3-a][1,4]diazepin-6-yl)acetate]
HEXIM1 expression (HEXIM1): upregulation
time of maximum effect on MYC (MYC; 10 nM): 2 h
lowest concentration at which MYC was downregulated (MYC; two hours of treatment): 10 nM
